According to ChEMBL document CHEMBL1201862, “PubChem BioAssay data set” (2004):
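Grown in 96-well plates, cells were treated for 48 hours with each compound at five concentrations. Insufficient inhibition: endpoint recorded as highest concentration tested. At the GI50, growth is halved.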 Activity calls are given as the source filed them. Cut-off read from the data, not from the text of the source: active = GI50 up to about 1.1 µM and inactive = higher.

Tests used:
Test in all cases: DTP human tumour cell line panel, 48 h
HL-60 = test system: HL-60
DMS-114 = test system: DMS-114
BT-549 = test system: BT-549
OVCAR-3 = test system: OVCAR-3
KM-20L2 = test system: KM-20L2
LOX IMVI = test system: LOX IMVI
CAKI-1 = test system: CAKI-1
MDA-MB-231 = test system: MDA-MB-231
Hs-578T = test system: Hs-578T
SNB-78 = test system: SNB-78
MDA-N = test system: MDA-N
XF498 = test system: XF498
SK-MEL-2 = test system: SK-MEL-2
PC-3 = test system: PC-3
TK-10 = test system: TK-10
K562 = test system: K562
LXFL 529 = test system: LXFL 529
IGROV-1 = test system: IGROV-1
T47D = test system: T47D
M14 = test system: M14
MDA-MB-435 = test system: MDA-MB-435
SNB-19 = test system: SNB-19
SF-539 = test system: SF-539
MOLT-4 = test system: MOLT-4
DMS-273 = test system: DMS-273
NCI-H226 = test system: NCI-H226
UACC-257 = test system: UACC-257
RPMI-8226 = test system: RPMI-8226
NCI-H23 = test system: NCI-H23
EKVX = test system: EKVX
SK-MEL-28 = test system: SK-MEL-28
Malme-3M = test system: Malme-3M
ACHN = test system: ACHN
HCC 2998 = test system: HCC 2998
COLO 205 = test system: COLO 205
M19-MEL = test system: M19-MEL
HOP-18 = test system: HOP-18
A498 = test system: A498
CCRF-CEM = test system: CCRF-CEM
SK-MEL-5 = test system: SK-MEL-5
A549 = test system: A549
OVCAR-4 = test system: OVCAR-4
KM12 = test system: KM12
OVCAR-5 = test system: OVCAR-5
SW-620 = test system: SW-620
SR = test system: SR
RXF 393 = test system: RXF 393
OVCAR-8 = test system: OVCAR-8
MCF7 = test system: MCF7
HOP-92 = test system: HOP-92
NCI-H522 = test system: NCI-H522
DU-145 = test system: DU-145
SNB-75 = test system: SNB-75
HCT-15 = test system: HCT-15
HOP-62 = test system: HOP-62
SF-295 = test system: SF-295
UACC-62 = test system: UACC-62
U-251 = test system: U-251
HT-29 = test system: HT-29
NCI-H460 = test system: NCI-H460
SF-268 = test system: SF-268
DLD-1 = test system: DLD-1
SN12C = test system: SN12C
UO-31 = test system: UO-31
786-0 = test system: 786-0
HCT-116 = test system: HCT-116
NCI/ADR-RES = test system: NCI/ADR-RES

Compound: Cc1cc(O)c2c(c1)C[C@@H](O)C1=C2C(=O)c2c(O)ccc(OC3CC(O)C(OC4CC(OC5CCC(OC6CC(O)C(OC7CC(OC8CCC(O)C(C)O8)C(O)C(C)O7)C(C)O6)C(C)O5)C(O)C(C)O4)C(C)O3)c2C1=O (some centres not stated)
- GI50 (HL-60): 36.4 nM (active)
- GI50 (DMS-114): 14.4 nM (active)
- GI50 (BT-549): 327 nM (active)
- GI50 (OVCAR-3): 64.1 nM (active)
- GI50 (KM-20L2): 46.1 nM (active)
- GI50 (LOX IMVI): 42.6 nM (active)
- GI50 (CAKI-1): 138 nM (active)
- GI50 (MDA-MB-231): 171 nM (active)
- GI50 (Hs-578T): 31.1 nM (active)
- GI50 (SNB-78): 24.5 nM (active)
- GI50 (MDA-N): 155 nM (active)
- GI50 (XF498): 24.7 nM (active)
- GI50 (SK-MEL-2): 57.7 nM (active)
- GI50 (PC-3): 223 nM (active)
- GI50 (TK-10): 184 nM (active)
- GI50 (K562): 65.3 nM (active)
- GI50 (LXFL 529): 15.5 nM (active)
- GI50 (IGROV-1): 176 nM (active)
- GI50 (T47D): 167 nM (active)
- GI50 (M14): 78.9 nM (active)
- GI50 (MDA-MB-435): 135 nM (active)
- GI50 (SNB-19): 177 nM (active)
- GI50 (SF-539): 71.6 nM (active)
- GI50 (MOLT-4): 35.2 nM (active)
- GI50 (DMS-273): 20.9 nM (active)
- GI50 (NCI-H226): 268 nM (active)
- GI50 (UACC-257): 110 nM (active)
- GI50 (RPMI-8226): 26.5 nM (active)
- GI50 (NCI-H23): 66.1 nM (active)
- GI50 (EKVX): 112 nM (active)
- GI50 (SK-MEL-28): 70 nM (active)
- GI50 (Malme-3M): 51.6 nM (active)
- GI50 (ACHN): 84.5 nM (active)
- GI50 (HCC 2998): 105 nM (active)
- GI50 (COLO 205): 48.8 nM (active)
- GI50 (M19-MEL): 4.11 nM (active)
- GI50 (HOP-18): 40.3 nM (active)
- GI50 (A498): 373 nM (active)
- GI50 (CCRF-CEM): 53.1 nM (active)
- GI50 (SK-MEL-5): 87.9 nM (active)
- GI50 (A549): 302 nM (active)
- GI50 (OVCAR-4): 17.9 nM (active)
- GI50 (KM12): 99.8 nM (active)
- GI50 (OVCAR-5): 128 nM (active)
- GI50 (SW-620): 38.1 nM (active)
- GI50 (SR): 71.5 nM (active)
- GI50 (RXF 393): 68.7 nM (active)
- GI50 (OVCAR-8): 22.4 nM (active)
- GI50 (MCF7): 324 nM (active)
- GI50 (HOP-92): 178 nM (active)
- GI50 (NCI-H522): 18.8 nM (active)
- GI50 (DU-145): 345 nM (active)
- GI50 (SNB-75): 57.3 nM (active)
- GI50 (HCT-15): 68.4 nM
- GI50 (HOP-62): 232 nM (active)
- GI50 (SF-295): 44.1 nM (active)
- GI50 (UACC-62): 70.2 nM (active)
- GI50 (U-251): 38.7 nM (active)
- GI50 (HT-29): 92 nM (active)
- GI50 (NCI-H460): 238 nM (active)
- GI50 (SF-268): 24.3 nM (active)
- GI50 (DLD-1): 17.3 nM (active)
- GI50 (SN12C): 58.1 nM (active)
- GI50 (UO-31): 156 nM (active)
- GI50 (786-0): 64.4 nM (active)
- GI50 (HCT-116): 49.2 nM (active)
- GI50 (NCI/ADR-RES): 30.8 nM (active)
